ChEMBL document CHEMBL1287721, “Synthesis of potent, substituted carbazoles as selective androgen receptor modulators (SARMs)” (Bioorg Med Chem Lett, 2010)
pIC50: −log10 of the molar value. Calls of active or inactive are those of the source. The calls are words filed in the database; no cut-off is given here.

What was measured:
Androgen receptor = target: T1, Androgen receptor (Homo sapiens, UniProt P10275); test: Binding affinity to androgen receptor by fluorescence binding assay
T1 sequence (P10275 whole entry): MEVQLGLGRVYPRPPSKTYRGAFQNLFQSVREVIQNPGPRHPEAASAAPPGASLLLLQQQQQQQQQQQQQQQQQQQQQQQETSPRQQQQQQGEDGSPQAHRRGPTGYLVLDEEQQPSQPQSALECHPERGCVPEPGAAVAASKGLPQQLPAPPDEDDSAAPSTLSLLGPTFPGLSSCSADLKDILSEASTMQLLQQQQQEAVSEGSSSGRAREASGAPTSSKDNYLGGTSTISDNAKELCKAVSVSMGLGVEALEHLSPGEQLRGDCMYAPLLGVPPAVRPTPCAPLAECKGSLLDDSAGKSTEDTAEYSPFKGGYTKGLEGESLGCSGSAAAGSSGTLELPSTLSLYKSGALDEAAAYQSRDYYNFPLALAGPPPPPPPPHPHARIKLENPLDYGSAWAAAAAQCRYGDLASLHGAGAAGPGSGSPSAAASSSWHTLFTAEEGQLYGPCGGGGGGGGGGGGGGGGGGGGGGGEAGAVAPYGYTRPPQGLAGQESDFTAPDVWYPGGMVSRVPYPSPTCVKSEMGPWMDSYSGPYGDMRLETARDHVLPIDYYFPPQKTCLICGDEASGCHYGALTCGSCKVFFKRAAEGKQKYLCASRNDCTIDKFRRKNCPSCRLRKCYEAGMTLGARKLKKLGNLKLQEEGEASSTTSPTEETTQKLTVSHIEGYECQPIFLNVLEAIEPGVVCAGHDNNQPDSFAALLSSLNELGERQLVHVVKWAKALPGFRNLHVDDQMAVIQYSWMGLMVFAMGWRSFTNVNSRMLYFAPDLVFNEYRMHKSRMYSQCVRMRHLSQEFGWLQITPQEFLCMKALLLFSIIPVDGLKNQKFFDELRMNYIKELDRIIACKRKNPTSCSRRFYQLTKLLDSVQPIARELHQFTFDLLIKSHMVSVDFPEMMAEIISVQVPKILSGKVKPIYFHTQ

Rattus norvegicus = test: Positive-anabolic effect in Sprague-Dawley rat assessed as increase in leavator ani muscle weight at 30 mg/kg, po administered once daily for 4 days and measured 24 hrs after the last dose by Herschberger assay; format: functional, organism-based; set-up: dose 30 mg/kg; conditions: Muscle tissue

Structure (SMILES) | pIC50 (Androgen receptor) | Activity (Rattus norvegicus)
OC1(C(F)(F)F)CCCc2c1[nH]c1cc(Cl)c(Cl)cc21 (stereo unspecified) | 7.57 | Active
OC1(C(F)(F)F)CCCc2c1[nH]c1c(Cl)ccc(Cl)c21 (stereo unspecified) | 7.07 | 
Oc1c(Cc2ccccc2)ccc2c1[nH]c1ccc(Cl)c(Cl)c12 | < 6.00 | 
OC1(C(F)(F)C(F)(F)F)CCCc2c1[nH]c1cc(Cl)c(Cl)cc21 (stereo unspecified) | 7.47 | 
N#Cc1ccc2[nH]c3c(c2c1)CCCC3(O)C(F)(F)F (stereo unspecified) | 6.32 | 
OC1(C(F)(F)F)CCCc2c1[nH]c1c(Cl)cc(Cl)cc21 (stereo unspecified) | 7.47 | 
CC1(O)CCCc2c1[nH]c1cc(Cl)c(Cl)cc21 (stereo unspecified) | < 5.00 | 
OC1(C(F)(F)F)c2[nH]c3c(Cl)cc(Cl)cc3c2CCC1(F)F (stereo unspecified) | 7.00 | 
CC1(O)CCCc2c1[nH]c1ccc(C#N)cc21 (stereo unspecified) | 5.04 | 
OC1(C(F)(F)F)CCCCc2c1[nH]c1c(Cl)cc(Cl)cc21 (stereo unspecified) | 6.22 | 
OC1(C(F)(F)F)CCCc2c1[nH]c1c(Cl)cc(F)cc21 (stereo unspecified) | 7.05 | 
OC1(C(F)(F)F)CCCc2c1[nH]c1ccc(Cl)c(Cl)c21 (stereo unspecified) | 7.02 | 
Oc1c(Cc2ccccc2)ccc2c1[nH]c1cc(Cl)c(Cl)cc12 | < 6.00 | 
OC1(C(F)(F)F)CCc2c1[nH]c1c(Cl)cc(Cl)cc21 (stereo unspecified) | 7.89 | 
N#Cc1ccc2[nH]c3c(c2c1)CCCC3(O)C(F)(F)C(F)(F)F (stereo unspecified) | < 5.00 | 
